{"source": "paper PMC8892092", "about": "(The Journal of Biological Chemistry, 2022)", "key": {"LuHNL [1]": {"target": "T1, LuHNL (Linum usitatissimum, UniProt P93243, V117T)", "format": "binding", "set-up": "E. coli SHuffle T7"}, "LuHNL [2]": {"target": "LuHNL (Linum usitatissimum, UniProt P93243, V117T/F340A)"}, "LuHNL [3]": {"target": "T1, LuHNL"}, "LuHNL [4]": {"target": "T1, LuHNL", "format": "binding", "set-up": "E. coli SHuffle T7", "remark": "listed apart in the source"}, "LuHNL [5]": {"target": "T1, LuHNL", "format": "binding", "set-up": "E. coli SHuffle T7", "remark": "listed apart in the source"}, "[6]": {"target": "the molecule itself", "test": "crystal structure; X-ray crystal structures of N-His-LuHNL (ligand-free with glycerol, soaked with acetone cyanohydrin, soaked with (rac)-2-butanone cyanohydrin); sitting drop, 20 °C, 0.1 M BIS-TRIS pH 6.5, 20% PEG MME 5,000; space group P2_(1), two dimers per asymmetric unit"}}, "data": [{"molecule": "CC(C)(O)C#N", "note": "[CNH, acetone cyanohydrin]", "values": [{"measurement": "X-ray crystal structure, 1.58 Å", "setting": "LuHNL [1]", "value": "The structures for acetone cyanohydrin (CNH) complexed LuHNL (LuHNL_CNH)"}, {"measurement": "Km", "setting": "LuHNL [2]", "value": "5.4 ± 2.3", "unit": "mM"}, {"measurement": "Km", "setting": "LuHNL [3]", "value": "2.7 ± 0.3", "unit": "mM"}]}, {"molecule": "NC(=O)c1ccc[n+]([C@@H]2O[C@H](COP(=O)(O)OP(=O)(O)OC[C@H]3O[C@@H](n4cnc5c(N)ncnc54)[C@H](O)[C@@H]3O)[C@@H](O)[C@H]2O)c1", "note": "[NAD^+]", "values": [{"measurement": "X-ray crystal structure, 1.48 Å; NAD+ quantitation", "setting": "LuHNL [4]", "value": "electron density of NAD^+ was observed in the crystal without the addition of exogenous NAD^+"}]}, {"molecule": "CC[C@@](C)(O)C#N", "note": "[(R)-BCN, (R)-2-butanone cyanohydrin]", "values": [{"measurement": "X-ray crystal structure, 1.72 Å", "setting": "LuHNL [5]", "value": "(R)-2-butanone cyanohydrin (BCN) complexed LuHNL (LuHNL_BCN) were determined"}]}, {"molecule": "Hydroxynitrile lyase from Linum usitatissimum (LuHNL), N-terminally His-tagged (enzyme, S-nitrosylation of Cys265 proposed from the electron density in the crystal (not detected in LuHNL solution), Hydroxynitrile lyase from Linum usitatissimum, gene of GenBank AF024588.1 (protein AAB81956.1), which has Thr117; Each subunit holds one NAD+, two Zn2+ and one Mg2+; The gene was cloned between NdeI and BamHI of pET-15b; also called N-His-LuHNL; LuHNL-wild; source: SHuffle T7 Express E. coli, pET-15b, purified (Ni Sepharose, Mono Q)) MASLPVSFAKPDKNGVITCKAIMLKEAKLPGMSYADTVQIIDIQVDPPQNVELRVKMLCASVCRTDILTIEGFMAPTQFPKINGHEGVGIIESMGPDTKNFKVGDVIVAPTLGECQTCSSCRSGRTNFCQNYGANESALEPDGTSRFSYIDSDGKKKLLYYKLGCSTWTQYMVVDSNYATKLNEIAPELPPPHGSILSCAFATGYGAVWLDAAVQEGDSVAIFGVGSVGISAVIAAKELKAKQIIVVDRNEYKLKMAMELGATHCINSEKLPEGVTPSQAVRKLTPKEVGVDASIESSGYDVFMNEAMKAAIHGKAKTVITGEGIYENDRIFFDFKDFLFGGNVVGNVTGRVRIHSDFPGLLRKAQEPVIRAGMDKILGYDAATMKCKYEVDIREGTPALLKALEEVENVDCVKLVIKLNDY", "values": [{"measurement": "stoichiometry N", "setting": "[6]", "value": 2}]}]}
